Experimental data from US12377076B2, “Compounds for treating lymphoma or a T-cell malignant disease” (Purdue Pharma L.P., priority 2018, dated 2025).
Like-named read-outs stand apart in the source and are kept apart here.

Assay: PK assessment: plasma tinostamustine and metabolites M2 and M8, non-compartmental analysis and population PK model
Type: in vivo, human
Details: for AUC / Cmax / Tmax: day one, Mean (SD)
Procedure: Plasma samples were collected to determine the concentrations of tinostamustine and its metabolites (labelled M2 and M8) by a method fully validated according to the relevant guidelines. The PK profiles of tinostamustine in plasma were assessed in each patient in the escalation stage of the study, in cycle 1 only.
Patients of all cohorts and over all dose levels were sampled according to the following schedule: 0.5 hours prior to dose administration, and at 15, 30 and 45 minutes and 1, 1.25, 1.50, 2, 3, 8, 24, 48 and 72 hours from the start of tinostamustine infusion. Plasma samples were collected according to the Laboratory Manual for the determination of tinostamustine and metabolites M2 and M8 concentrations using a method fully validated according to the relevant guidelines.
A compartmental population PK analysis of tinostamustine was conducted to characterize its concentration-time profiles and its dependency on patient factors. For the analysis, the 24 hours plasma concentrations of tinostamustine at day one from 36 patients was used from whom the data was available. The concentration-time profiles were best described with a two-compartmental model with first order clearance from the central compartment.

[1] = human, plasma, intravenous, 20 mg/m^2, 20 mg/m^2, infusion 60 minutes
[2] = human, plasma, intravenous, 40 mg/m^2, 40 mg/m^2, infusion 60 minutes
[3] = human, plasma, intravenous, 60 mg/m^2, 60 mg/m^2, infusion 30 minutes
[4] = human, plasma, intravenous, 60 mg/m^2, 60 mg/m^2, infusion 60 minutes
[5] = human, plasma, intravenous, 80 mg/m^2, 80 mg/m^2, infusion 45 minutes
[6] = human, plasma, intravenous, 80 mg/m^2, 80 mg/m^2, infusion 60 minutes
[7] = human, plasma, intravenous, 100 mg/m^2, 100 mg/m^2, infusion 60 minutes
[8] = human, plasma, intravenous, 120 mg/m^2, 120 mg/m^2, infusion 60 minutes

With `Cn1c(CCCCCCC(=O)NO)nc2cc(N(CCCl)CCCl)ccc21` [tinostamustine] the “dose linearity of PK” value (dose range 20-120 mg/m^2 over 60 minutes infusion time) was “linear”, the “dose linearity of PK” value (dose range 20 to 120 mg/m^2, infusion times of 30 to 60 minutes) was “dose-linear” and the AUC [1] was 193 ng·h/mL. It also gave a Cmax [1] of 241 ng/mL, a Tmax [1] of 48 min and an AUC [2] of 932 ng·h/mL. It also gave a Cmax [2] of 1160 ng/mL, a Tmax [2] of 24 min and an AUC [3] of 627 ng·h/mL. For the same compound, the Cmax [3] was 1720 ng/mL, the Tmax [3] was 18 min and the AUC [4] was 592 ng·h/mL. For the same compound, the Cmax [4] was 640 ng/mL, the Tmax [4] was 60 min and the AUC [5] was 794 ng·h/mL. It also gave a Cmax [5] of 1280 ng/mL, a Tmax [5] of 24 min and an AUC [6] of 902 ng·h/mL. It also gave a Cmax [6] of 1060 ng/mL, a Tmax [6] of 48 min and an AUC [7] of 1660 ng·h/mL. It also gave a Cmax [7] of 1960 ng/mL, a Tmax [7] of 42 min and an AUC [8] of 1640 ng·h/mL. The Cmax [8] was 1770 ng/mL, the Tmax [8] was 48 min and the half-life (human, plasma, intravenous, population PK, two-compartmental model, 36 patients, read-out: B half-life (converted)) was 216 min. For the same compound, the Vd (human, plasma, intravenous, population PK, two-compartmental model, 36 patients, read-out: Central volume of distribution) was 20.6 L, the half-life (human, plasma, intravenous, population PK, two-compartmental model, 36 patients, read-out: α half-life) was 27 min and the “Peripheral volume of distribution” value (population PK, two-compartmental model, 36 patients) was 11.5 L. The “time to maximum concentrations” value (shorter infusions) was “around 30 minutes”.
